Values after ≈ are worked out from the molar mass of the structure shown.
What was measured:
Assay in all cases: MIC serial dilution assay
Format in all cases: cell-based
[1] = system: Mycolicibacterium smegmatis; conditions: Mycolicibacterium smegmatis ATCC700084; overnight, 37 °C; reference kanamycin 0.1 mg/mL
Protocol: (§1) Compounds 1, 2, 4 and 5 were dissolved in MeOH (1 mg/mL) for the antimicrobial activity assay, while compound 3 was dissolved in MeOH: DMSO 9+1 (1 mg/mL). The solvents were also used as negative controls.
(§2) Minimum inhibitory concentrations (MIC) were determined in a serial dilution assay, as described previously; a detailed protocol can be found in the Supporting Information. The compounds (1 mg/mL) were diluted to a range of 66.7 to 0.52 µg/mL and incubated with the test organisms overnight. Inhibition of growth was visually evaluated the next day: the MIC is defined as the lowest concentration of the test compound where no growth of the test organism was observed. Various test organisms of fungal and bacterial origin were tested to cover a broad range of microorganisms. This selection is also being used as a standard test panel in our attempts to discover new anti-infectives, as it represents a broad spectrum of pathogens of clinical interest, as well as sensitive indicator strains (bacteria: Bacillus subtilis, Staphylococcus aureus, Micrococcus luteus, Chromobacterium violaceum, Escherichia coli and Pseudomonas aeruginosa; mycobacteria: Mycolicibacterium smegmatis and fungi: Candida albicans, Schizosaccharomyces pombe, Mucor hiemalis, Pichia anomala and Rhodotorula glutinis).
(§3) Protocol: Antimicrobial Activi ty Assay
(§4) The assay was conducted as a minimum inhi bitory concentration (MIC) assay in 96-well ro und-bottom mi crotiter pl ate s usi ng the p ar ameter s su mm ari zed i n T a bl e S 1 and as already described i n [S1].
(§5) Stocks of the test organi sms were generated by growing the organisms o ver ni ght i n 50 mL shaki ng fl asks fi ll ed wi th 25 mL of the growth medi um at 140 rpm (for media and temperatures see Table S1). If the organisms were well grown the ne xt day, which was checked by occurrence of an optical density (OD)>30 of the suspension (OD600 nm for bacteria, OD548 nm for fungi and M. smegma tis) , aliquots of these were stored i n 1.5 mL reaction tube s in a freezer at −80 °C for up to 12 mo nths . Upon use, aliquots were unth awed and the OD of the suspension measured and adjusted by diluting with the respective growth medi um. OD600 nm w as adj usted to 0.01 and OD548 nm to 0.1.
(§6) Subse que ntly, 150 µL o f the adjusted suspensions were added to all wells of a 96-wel l microtiter pl ate (one test organi sm per plate). In row A, additional 130 µL of suspensions plus 20 µL of the test compounds (1 mg/mL) and the controls (one compound/column) were added. MeOH as well as MeOH:DMSO 9+1 were used as negative controls, while different positive controls (refer ences) were used for the test organisms (see Tabl e S1). Then, starti ng from row A, 150 µ L of the suspension were transferred to the next row, the contents thoroughly mixed, and 150 µ L transferred to the following row.
(§7) The remaining 150 µ L after row H were discarded. […]
(§8) compounds, ranging from 66.7 µg/mL i n row A to 0.52 µg/mL i n row H.
(§9) The microtiter plates were then incubated overnight o n a microplate shaker at 800 rpm at 30 or 37 °C (see Table S1) and were visually evaluated the next day. The MIC is defined as the lowest concentration were no growth of the test organism was o bserved. A lower MIC thus corresponds to a higher antimicrobial activity of the test compound.
(§10) Table S1: MIC assay ex per i men t parameters test organism strain No. growth incubation positive control (reference) […]
(§11) Rhodotorula glutinis DSM10134 MYC 3 30 nyst ati n 1.0 mg/mL
(§12) 1 MHB: Müller-Hinton Broth (SN X927.1, Ca r l Roth GmbH, Karlsruhe, Germany) 2 7H9+ADC: Middlebrook 7H9 Broth Base + Middlebrook ADC Growth Supplement (SN M0678+M0553, Merck, Darmstadt, Germany)
(§13) 3 MYC: 1 % w/v, bacto peptone, 1% w/v yeast extract, 2 % w /v glycerol, pH 6.3 [S1] Helaly, S.E.; Ashrafi, S.; Teponno, R.B.; Bernecker, S.; Dababat, A.A.; Maier, W.; Stadler, M.
(§14) Nematicidal Cyclic Lipodepsipeptides and a Xanthocillin Derivative from a Phaeosphariaceous […]

Bacillus subtilis = Bacillus subtilis DSM10; overnight, 30 °C; reference oxytetracycline 1 mg/mL; read-out: Minimum Inhibitory Concentration (MIC)
Protocol: as §1, §2, §3, §4, §5, §6, §7, §8, §9, §10
Bacillus subtilis DSM10 MHB 1 30 oxytetr acyclin 1.0 mg/mL […]
as §11, §12, §13, §14

Staphylococcus aureus = Staphylococcus aureus DSM346; overnight, 30 °C; reference oxytetracycline 0.1 mg/mL; read-out: Minimum Inhibitory Concentration (MIC)
Protocol: as §1, §2, §3, §4, §5, §6, §7, §8, §9, §10
Staphylococcus aureus DSM346 MHB 1 30 oxytetr acyclin 0.1 mg/mL […]
as §11, §12, §13, §14

Micrococcus luteus = conditions: Micrococcus luteus, DSM1790, Micrococcus luteus DSM1790; overnight, 30 °C; reference oxytetracycline 0.1 mg/mL; read-out: Minimum Inhibitory Concentration (MIC)
Protocol: as §1, §2, §3, §4, §5, §6, §7, §8, §9, §10
Micrococcus luteu s DSM1790 MHB 1 30 oxytetr acyclin 0.1 mg/mL […]
as §11, §12, §13, §14

[2] = system: Chromobacterium violaceum; conditions: Chromobacterium violaceum DSM30191; overnight, 30 °C; reference oxytetracycline 0.1 mg/mL; read-out: Minimum Inhibitory Concentration (MIC)
Protocol: as §1, §2, §3, §4, §5, §6, §7, §8, §9, §10
Chromobacterium DSM30191 MHB 1 30 oxytetr acyclin 0.1 mg/mL […]
as §11, §12, §13, §14

Escherichia coli = Escherichia coli DSM1116; overnight, 37 °C; reference oxytetracycline 0.1 mg/mL; read-out: Minimum Inhibitory Concentration (MIC)
Protocol: as §1, §2, §3, §4, §5, §6, §7, §8, §9, §10
Escherichia coli DSM1116 MHB 1 37 oxytetr acyclin 0.1 mg/mL […]
as §11, §12, §13, §14

Pseudomonas aeruginosa = Pseudomonas aeruginosa PA14; overnight, 37 °C; reference gentamicin 0.1 mg/mL; read-out: Minimum Inhibitory Concentration (MIC)
Protocol: as §1, §2, §3, §4, §5, §6, §7, §8, §9, §10
Pseudomonas a erugi nosa PA14 MHB 1 37 gent amici n 0.1 mg/mL […]
as §11, §12, §13, §14

## NC[C@H]1O[C@H](O[C@H]2[C@H](O)[C@@H](O[C@H]3O[C@H](CO)[C@@H](O)[C@H](N)[C@H]3O)[C@H](N)C[C@@H]2N)[C@H](O)[C@@H](O)[C@@H]1O [kanamycin, reference compound]
[1]
  Minimum Inhibitory Concentration (MIC): 3.3 ^4 µg/mL

## CN(C)[C@@H]1C(O)=C(C(N)=O)C(=O)[C@@]2(O)C(O)=C3C(=O)c4c(O)cccc4[C@@](C)(O)[C@H]3[C@H](O)[C@@H]12 [oxytetracycline, reference compound]
Bacillus subtilis
  MIC: 8.3 µg/mL (≈ 18 µM)
Staphylococcus aureus
  MIC: 0.4 µg/mL (≈ 0.869 µM)
Micrococcus luteus
  MIC: 0.8 µg/mL (≈ 1.74 µM)
[2]
  MIC: 0.1 µg/mL (≈ 0.217 µM)
Escherichia coli
  MIC: 1.7 µg/mL (≈ 3.69 µM)

## CNC(C)C1CCC(N)C(OC2C(N)CC(N)C(OC3OCC(C)(O)C(NC)C3O)C2O)O1 (stereo not shown) [gentamicin, reference compound]
Pseudomonas aeruginosa
  MIC: 0.4 µg/mL (≈ 0.838 µM)
